IC50 data for 14 compounds are collected here from US20240116985A1, “STAPLED PEPTIDES AND METHODS THEREOF” (priority 2020, published 2024).

pIC50: −log10 of the molar value.

This assay addresses T1, full-length beta-Catenin (Uniprot ID P35222) (Homo sapiens, UniProt P35222).
T1 construct: 10 nM full-length beta-Catenin (Uniprot ID P35222)
T1 sequence (P35222 1-781): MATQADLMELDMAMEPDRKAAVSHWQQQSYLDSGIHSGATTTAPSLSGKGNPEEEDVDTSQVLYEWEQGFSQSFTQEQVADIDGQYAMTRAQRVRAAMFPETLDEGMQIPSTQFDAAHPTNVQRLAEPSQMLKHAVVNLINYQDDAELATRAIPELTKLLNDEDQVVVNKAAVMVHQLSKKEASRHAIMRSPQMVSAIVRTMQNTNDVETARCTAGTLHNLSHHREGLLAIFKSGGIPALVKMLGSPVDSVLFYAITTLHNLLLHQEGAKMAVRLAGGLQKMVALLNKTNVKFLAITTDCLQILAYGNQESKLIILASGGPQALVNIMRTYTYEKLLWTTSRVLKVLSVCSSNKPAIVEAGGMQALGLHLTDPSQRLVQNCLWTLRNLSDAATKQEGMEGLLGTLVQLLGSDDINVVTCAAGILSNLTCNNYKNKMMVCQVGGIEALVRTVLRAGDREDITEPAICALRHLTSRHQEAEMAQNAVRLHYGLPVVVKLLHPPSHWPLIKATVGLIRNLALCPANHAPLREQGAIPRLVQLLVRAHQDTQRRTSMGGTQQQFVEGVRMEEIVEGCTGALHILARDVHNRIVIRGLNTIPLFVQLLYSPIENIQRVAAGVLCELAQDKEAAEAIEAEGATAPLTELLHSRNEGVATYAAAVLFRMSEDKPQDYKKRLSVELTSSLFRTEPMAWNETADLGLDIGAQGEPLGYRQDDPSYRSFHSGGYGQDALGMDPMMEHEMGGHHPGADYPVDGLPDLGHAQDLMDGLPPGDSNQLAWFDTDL
The experiment in a line: Fluorescence polarization IC50 (beta-catenin / 5FAM-TCF4 10-53 competition). Type of assay: binding. The conditions noted are these: fluorescence polarization; read-out: beta-Catenin FP IC50. For orientation: Fluorescence polarisation rises when a labelled molecule tumbles more slowly, as on binding a larger partner.
`CC(=O)N1CCC[C@]12CC=CCCCC1(CCCC=CCOC(=O)N3CC[C@@](C(=O)N[C@@H](Cc4ccsc4)C(=O)N[C@@H](Cc4csc5ccccc45)C(=O)N[C@@H](CCC(N)=O)C(N)=O)(C3)NC(=O)[C@H](CC(N)=O)NC(=O)[C@H](Cc3ccccc3)NC(=O)[C@H](C)NC(=O)[C@H](C)NC(=O)[C@H](CC(=O)O)NC(=O)[C@H](CC(=O)O)NC1=O)NC(=O)[C@H](CC(C)(C)C)NC(=O)[C@H](CC(=O)O)NC2=O` (stereo partly drawn) [I-1817, Ac-PL3-Asp-Npg-B5-Asp-Asp-Ala-Ala-Phe-Asn-PyrS-3Thi-BztA-Gln-NH2]: the negative-log IC50 (pIC50) (as a rule, the IC50 on a negative log10 scale, so that one unit is a factor of ten) was 6.74.
With `CC(=O)N1CCC[C@]12CC=CCCCC1(CCCC=CCCCCC[C@@](C)(C(=O)N[C@@H](Cc3ccsc3)C(=O)N[C@@H](Cc3csc4ccccc34)C(=O)N[C@@H](CCC(N)=O)C(N)=O)NC(=O)[C@H](CC(N)=O)NC(=O)[C@H](Cc3ccccc3)NC(=O)[C@H](C)NC(=O)[C@H](C)NC(=O)[C@H](CC(=O)O)NC(=O)[C@H](CC(=O)O)NC1=O)NC(=O)[C@H](CC(C)(C)C)NC(=O)[C@H](CC(=O)O)NC2=O` (stereo partly drawn) [I-1819, Ac-PL3-Asp-Npg-B5-Asp-Asp-Ala-Ala-Phe-Asn-S7-3Thi-BztA-Gln-NH2], the negative-log IC50 (pIC50) was 6.21.
For the compound `CC(=O)N1CCC[C@]12CC=CCCCC1(CCCC=CCCCCC[C@@](C)(C(=O)N[C@@H](Cc3ccsc3)C(=O)N[C@@H](Cc3csc4ccccc34)C(=O)N[C@@H](CCC(N)=O)C(N)=O)NC(=O)[C@H](CC(C)C)NC(=O)[C@H](Cc3ccccc3)NC(=O)[C@H](C)NC(=O)[C@H](C)NC(=O)[C@H](CC(=O)O)NC(=O)[C@H](CC(=O)O)NC1=O)NC(=O)[C@H](CC(C)(C)C)NC(=O)[C@H](CC(=O)O)NC2=O` (stereo partly drawn) [I-1820, Ac-PL3-Asp-Npg-B5-Asp-Asp-Ala-Ala-Phe-Leu-S7-3Thi-BztA-Gln-NH2], the pIC50 was 6.37.
For the compound `CC(=O)N1CCC[C@]12CCCCCCC1(CCCCCCCCCC[C@@](C)(C(=O)N[C@@H](Cc3ccsc3)C(=O)N[C@@H](Cc3csc4ccccc34)C(=O)N[C@@H](CCC(N)=O)C(N)=O)NC(=O)[C@H](CC(N)=O)NC(=O)[C@H](Cc3ccccc3)NC(=O)[C@H](C)NC(=O)[C@H](C)NC(=O)[C@H](CC(=O)O)NC(=O)[C@H](CC(=O)O)NC1=O)NC(=O)[C@H](CC(C)(C)C)NC(=O)[C@H](CC(=O)O)NC2=O` (stereo partly drawn) [I-1825, Ac-PL3-Asp-Npg-B5-Asp-Asp-Ala-Ala-Phe-Asn-S7-3Thi-BztA-Gln-NH2], the pIC50 is 6.44.
The value for `CC(=O)N1CCC[C@]12CC=CCCCC1(CCCC=CCOC(=O)N3CC(C(=O)N[C@@H](Cc4ccsc4)C(=O)N[C@@H](Cc4csc5ccccc45)C(=O)N[C@@H](CCC(N)=O)C(N)=O)(C3)NC(=O)[C@H](CC(N)=O)NC(=O)[C@H](Cc3ccccc3)NC(=O)[C@H](C)NC(=O)[C@H](C)NC(=O)[C@H](CC(=O)O)NC(=O)[C@H](CC(=O)O)NC1=O)NC(=O)[C@H](CC(C)(C)C)NC(=O)[C@H](CC(=O)O)NC2=O` (stereo partly drawn) [I-1826, Ac-PL3-Asp-Npg-B5-Asp-Asp-Ala-Ala-Phe-Asn-Az-3Thi-BztA-Gln-NH2] was 6.32.
As for `CC(=O)N1CCC[C@]12CC=CCCCC1(CCCC=CCOC(=O)N3CC(C(=O)N[C@@H](Cc4ccsc4)C(=O)N[C@@H](Cc4csc5ccccc45)C(=O)N[C@@H](CCC(N)=O)C(N)=O)(C3)NC(=O)[C@H](CC(N)=O)NC(=O)[C@H](Cc3ccccc3)NC(=O)[C@H](C)NC(=O)[C@H](C)NC(=O)[C@H](CC(=O)O)NC(=O)[C@H](CC(=O)O)NC1=O)NC(=O)[C@H](CC(C)(C)C)NC(=O)[C@H](CC(=O)O)NC2=O` (stereo partly drawn) [I-1827, Ac-PL3-Asp-Npg-B5-Asp-Asp-Ala-Ala-Phe-Asn-Az-3Thi-BztA-Gln-NH2], the negative logarithm of the IC50 (pIC50) was 6.51.
`CC(=O)N1CCC[C@]12CC=CCCCC1(CCCC=CCOC(=O)N(C)CC[C@@](C)(C(=O)N[C@@H](Cc3ccsc3)C(=O)N[C@@H](Cc3csc4ccccc34)C(=O)N[C@@H](CCC(N)=O)C(N)=O)NC(=O)[C@H](CC(N)=O)NC(=O)[C@H](Cc3ccccc3)NC(=O)[C@H](C)NC(=O)[C@H](C)NC(=O)[C@H](CC(=O)O)NC(=O)[C@H](CC(=O)O)NC1=O)NC(=O)[C@H](CC(C)(C)C)NC(=O)[C@H](CC(=O)O)NC2=O` (stereo partly drawn) [I-1829, Ac-PL3-Asp-Npg-B5-Asp-Asp-Ala-Ala-Phe-Asn-SdN-3Thi-BztA-Gln-NH2]: the pIC50 is 6.18.
Turning to `CC(=O)N1CCC[C@]12CC=CCCCC1(CCCC=CCOC(=O)N(C)CC[C@@](C)(C(=O)N[C@@H](Cc3ccsc3)C(=O)N[C@@H](Cc3csc4ccccc34)C(=O)N[C@@H](CCC(N)=O)C(N)=O)NC(=O)[C@H](CC(C)C)NC(=O)[C@H](Cc3ccccc3)NC(=O)[C@H](C)NC(=O)[C@H](C)NC(=O)[C@H](CC(=O)O)NC(=O)[C@H](CC(=O)O)NC1=O)NC(=O)[C@H](CC(C)(C)C)NC(=O)[C@H](CC(=O)O)NC2=O` (stereo partly drawn) [I-1830, Ac-PL3-Asp-Npg-B5-Asp-Asp-Ala-Ala-Phe-Leu-SdN-3Thi-BztA-Gln-NH2], the pIC50 was 6.50.
Take `CC(=O)N1CCC[C@]12CCCCCCC1(CCCCCCOC(=O)N3CC(C(=O)N[C@@H](Cc4ccsc4)C(=O)N[C@@H](Cc4csc5ccccc45)C(=O)N[C@@H](CCC(N)=O)C(N)=O)(C3)NC(=O)[C@H](CC(N)=O)NC(=O)[C@H](Cc3ccccc3)NC(=O)[C@H](C)NC(=O)[C@H](C)NC(=O)[C@H](CC(=O)O)NC(=O)[C@H](CC(=O)O)NC1=O)NC(=O)[C@H](CC(C)(C)C)NC(=O)[C@H](CC(=O)O)NC2=O` (stereo partly drawn) [I-1831, Ac-PL3-Asp-Npg-B5-Asp-Asp-Ala-Ala-Phe-Asn-Az-3Thi-BztA-Gln-NH2]: the pIC50 is 5.79.
`CC(=O)N1CCC[C@]12CCCCCCC1(CCCCCCOC(=O)N3CC(C(=O)N[C@@H](Cc4ccsc4)C(=O)N[C@@H](Cc4csc5ccccc45)C(=O)N[C@@H](CCC(N)=O)C(N)=O)(C3)NC(=O)[C@H](CC(C)C)NC(=O)[C@H](Cc3ccccc3)NC(=O)[C@H](C)NC(=O)[C@H](C)NC(=O)[C@H](CC(=O)O)NC(=O)[C@H](CC(=O)O)NC1=O)NC(=O)[C@H](CC(C)(C)C)NC(=O)[C@H](CC(=O)O)NC2=O` (stereo partly drawn) [I-1832, Ac-PL3-Asp-Npg-B5-Asp-Asp-Ala-Ala-Phe-Leu-Az-3Thi-BztA-Gln-NH2]: the pIC50 is 5.95.
Turning to `CC(=O)N1CCC[C@]12CC=CCCCC1(CCCC=CCCCOC(=O)N3CC[C@@](C(=O)N[C@@H](Cc4ccsc4)C(=O)N[C@@H](Cc4csc5ccccc45)C(=O)N[C@@H](CCC(N)=O)C(N)=O)(C3)NC(=O)[C@H](CC(C)C)NC(=O)[C@H](Cc3ccccc3)NC(=O)[C@H](C)NC(=O)[C@H](C)NC(=O)[C@H](CCN(CC(=O)O)CC(=O)O)NC(=O)[C@H](CC(=O)O)NC1=O)NC(=O)[C@H](CC(C)(C)C)NC(=O)[C@H](CC(=O)O)NC2=O` (stereo partly drawn) [I-1836, Ac-PL3-Asp-Npg-B5-Asp-[CH2CO2H]GAbu-Ala-Ala-Phe-Leu-PyrS2-3Thi-BztA-Gln-NH2], the pIC50 is 7.62.
Next, `CC(=O)N1CCC[C@]12CC=CCCCC1(CCCC=CCCCOC(=O)N3CC[C@@](C(=O)N[C@@H](Cc4ccsc4)C(=O)N[C@@H](Cc4csc5ccccc45)C(=O)N[C@@H](CCC(N)=O)C(N)=O)(C3)NC(=O)[C@H](CC(C)C)NC(=O)[C@H](Cc3ccccc3)NC(=O)[C@H](C)NC(=O)[C@H](C)NC(=O)[C@H](CCN(CCN3CCOCC3)CC(=O)O)NC(=O)[C@H](CC(=O)O)NC1=O)NC(=O)[C@H](CC(C)(C)C)NC(=O)[C@H](CC(=O)O)NC2=O` (stereo partly drawn) [I-1842, Ac-PL3-Asp-Npg-B5-Asp-[MorphEt]GAbu-Ala-Ala-Phe-Leu-PyrS2-3Thi-BztA-Gln-NH2]: 7.09; `CC(=O)N1CCC[C@]12CC=CCCCC1(CCCC=CCCCOC(=O)N3CC[C@@](C(=O)N[C@@H](Cc4ccsc4)C(=O)N[C@@H](Cc4csc5ccccc45)C(=O)N[C@@H](CCC(N)=O)C(N)=O)(C3)NC(=O)[C@H](CC(C)C)NC(=O)[C@H](Cc3ccccc3)NC(=O)[C@H](C)NC(=O)[C@H](C)NC(=O)[C@H](CNc3ccc([N+](=O)[O-])c(C(=O)O)c3)NC(=O)[C@H](CC(=O)O)NC1=O)NC(=O)[C@H](CC(C)(C)C)NC(=O)[C@H](CC(=O)O)NC2=O` (stereo partly drawn) [I-1844, Ac-PL3-Asp-Npg-B5-Asp-[3COOH4NO2Ph]Dap-Ala-Ala-Phe-Leu-PyrS2-3Thi-BztA-Gln-NH2]: 6.64; `CC(=O)N1CCC[C@]12CC=CCCCC1(CCCC=CCCCOC(=O)N3CC[C@@](C(=O)N[C@@H](Cc4ccsc4)C(=O)N[C@@H](Cc4csc5ccccc45)C(=O)N[C@@H](CCC(N)=O)C(N)=O)(C3)NC(=O)[C@H](CC(C)C)NC(=O)[C@H](Cn3cc(CN(C)C)nn3)NC(=O)[C@H](C)NC(=O)[C@H](C)NC(=O)[C@H](CN(CC(=O)O)CC(F)(F)F)NC(=O)[C@H](CC(=O)O)NC1=O)NC(=O)[C@H](CC(C)(C)C)NC(=O)[C@H](CC(=O)O)NC2=O` (stereo partly drawn) [I-1855, Ac-PL3-Asp-Npg-B5-Asp-TfeGA-Ala-Ala-[CH2NMe2]TriAzDap-Leu-PyrS2-3Thi-BztA-Gln-NH2]: 6.07.
